These results are taken from PubChem BioAssay (NCI).

Assay in all cases: NCI-60 cell line screen, 48 h
Test [1] concerns SF-539 CNS.
Test [2] concerns SNB-19 CNS.
Test [3] concerns HCC-2998 colon.
The subject of test [4] is COLO 205 colon.
The test system of test [5] is HT29 colon.
The test system of test [6] is UACC-257 melanoma.
Test [7] relates to A549 NSCLC.
For test [8], the system named is CAKI-1 renal.
The subject of test [9] is TK-10 renal.
Test [10] has as its system SK-MEL-5 melanoma.
The subject of test [11] is SK-OV-3 ovarian.
Test [12] deals with NCI-H522 lung.
Test [13] relates to SK-MEL-28 melanoma.
The subject of test [14] is HOP-62 NSCLC.
Test [15] concerns SW-620 colon.
Test [16] deals with SNB-75 CNS.
For test [17], the system named is PC-3 prostate.
Test [18] concerns OVCAR-5 ovarian.
Test [19] has as its system HS 578T breast.
Test [20] has as its system MDA-N.

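Growth conditions: 96-well plates. Treatment: test compound, 48 hours, 5 concentrations. Analysis: linear interpolation between bracketing concentrations; unreached endpoints set to highest concentration. Definition used: TGI = concentration required for complete inhibition of growth.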

Consider `O=S1(=O)OCCOS(=O)(=O)C1I`, for which the TGI in [1], in test [2], in test [3], in [4], in test [5] and in [6] was more than 100 µM in each case. Further, the TGI in [7], in [8], in [9], in test [10], in test [11] and in test [12] was more than 100 µM in each case. Further, the TGI in [13], in test [14], in [15] and in test [16] was more than 100 µM throughout.

In the case of `CCN(CC)CC(=O)Nc1c(C(N)=O)nnn1Cc1cc(Cl)c(C(=O)c2ccc(Cl)cc2)c(Cl)c1`, the TGI in test [17] was 38.7 µM; in test [1], 31.4 µM; in test [2] it was more than 100 µM; in test [3], 32.1 µM; in test [4], 33.2 µM; in test [5], 38.6 µM. Further, the TGI in [6] is 32.6 µM; in [7], 79.6 µM; in test [8], 65.1 µM; in test [9], 57.4 µM; in test [10], 30.4 µM; in test [11] it was 51.5 µM. In addition, the TGI in test [12] was 41.3 µM; in test [18], 40.7 µM; in test [13], 33.3 µM; in [14], 34.2 µM; in test [15], 40.4 µM; in [19], 33 µM. Moreover, the TGI in test [16] was 59 µM.

Consider `COC(=O)c1ccc(OCc2ccc3nc(OC)c(OC)nc3c2)cc1`, for which the TGI in test [1], in test [2], in [3], in [4], in test [5] and in test [6] was more than 100 µM in each case. Also, the TGI in test [7], in test [8], in [9], in test [10], in test [12] and in test [18] was more than 100 µM throughout. In addition, the TGI in [13], in test [14], in test [15] and in test [16] was more than 100 µM throughout.

As to `CCN1CCC(O)(c2ccc(C)cc2)C(C(=O)c2ccc(C)cc2)C1` (configuration not stated), the TGI in test [1] was more than 59.1 µM; in test [2], more than 100 µM; in test [3], more than 100 µM; in test [4] it was 48.8 µM; in test [5], 36.9 µM; in [6] it was 36.6 µM. Further, the TGI in test [7] was more than 100 µM; in test [8] it was 31.3 µM; in test [9], more than 61 µM; in test [10], more than 57.2 µM; in [11] it was more than 100 µM; in test [12], 3.44 µM. The TGI is 47.4 µM in test [18]; 56 µM in test [13]; more than 100 µM in test [14]; 31.8 µM in test [15]; more than 100 µM in test [16].

For the compound `CC1=NN(c2nc(N)nc(CCl)n2)CC1`, the TGI in test [17] was more than 100 µM; in test [1], 57.9 µM; in [2], more than 100 µM; in [3], more than 100 µM; in [4], 36.3 µM; in test [5], more than 100 µM. Besides, the TGI is more than 100 µM in test [6]; more than 100 µM in [7]; 21.4 µM in test [8]; more than 100 µM in test [9]; 32.2 µM in test [10]; more than 100 µM in test [11]. In addition, the TGI in test [12] was 4.91 µM; in [18], 57.4 µM; in [13] it was 56.4 µM; in [14], 29.4 µM; in test [15], 76.4 µM; in [19], more than 100 µM. The compound further came in with a TGI in test [16] of 74.1 µM.

Regarding `COc1cc(C2c3cc4c(cc3OC(NC3CCCCC3)C2C)OCO4)cc(OC)c1OC` (configuration not stated), the TGI in test [17] is more than 28.8 µM; in test [1] it was 1.4 µM; in test [2] it was more than 100 µM; in test [3], 4.22 µM; in [4] it was 0.825 µM; in test [5], 25.6 µM. Further, the TGI is more than 100 µM in test [6]; more than 85.3 µM in [7]; 2.75 µM in [8]; more than 68.8 µM in [9]; 1.93 µM in test [10]; 15.3 µM in test [11]. Moreover, the TGI in [12] is 2.28 µM; in [18], more than 100 µM; in test [13], more than 100 µM; in test [14] it was more than 64.3 µM; in [15], more than 55.7 µM; in test [19] it was 58.3 µM. Besides, in [16], the TGI amounted to 0.623 µM.

For `COc1cc(OC)cc(Oc2nc3ccccc3nc2C(=O)O)c1`, the TGI in [17], in [2], in [3], in test [4], in test [5] and in test [6] was more than 100 µM throughout. For the same compound, the TGI in test [7], in [8], in [9], in test [10], in [11] and in test [12] was more than 100 µM each time. The TGI in test [18], in test [13], in test [14], in test [15], in test [19] and in test [16] was more than 100 µM throughout.

As to `COc1ccc2c(c1)c(=O)c1ccccc1n2/C=C/C(=O)O`, the TGI in [1], in [2], in [3], in [4], in test [5] and in [6] was more than 100 µM in each case. For the same compound, the TGI in test [7], in [8], in test [9], in test [10], in [11] and in [12] was more than 100 µM each time. The TGI in test [18], in test [13], in test [14], in test [15] and in test [16] was more than 100 µM each time.

As for `CCCCCCCC1(N=[N+]=[N-])C(=O)c2ccccc2N(C)C1=O` (configuration not stated), the TGI in test [17], in test [1], in test [2], in test [3], in test [4] and in test [5] was more than 100 µM in each case. For the same compound, the TGI in [6], in test [7], in [8], in test [9], in test [10] and in test [11] was more than 100 µM each time. For the same compound, the TGI in test [12], in [18], in test [13], in test [14], in test [15] and in test [19] was more than 100 µM each time. This compound came in with a TGI in test [16] of more than 100 µM.

Consider `CC(=O)C1C(=O)C(=O)N(c2cccc(C)c2C)C1=O` (configuration not stated), for which the TGI in test [17], in [1], in test [2], in test [4], in [5] and in test [6] was more than 100 µM throughout. Also, the TGI in test [7], in [8], in test [9], in test [10], in test [11] and in test [20] was more than 100 µM throughout. Further, the TGI in [18], in [14] and in test [16] was more than 100 µM each time.

For `COc1ccc(N2C(=O)C3c4[nH]c5ccccc5c4C4CCCCCCCCCCC4C3C2=O)cc1` (configuration not stated), the TGI in test [1] was more than 33.2 µM; in test [2] it was 40.8 µM; in test [3] it was more than 100 µM; in test [4] it was more than 40.5 µM; in [5], 18.9 µM; in test [6] it was more than 100 µM. Moreover, the TGI is 23.2 µM in [7]; more than 100 µM in test [8]; more than 73.2 µM in test [9]; more than 59.6 µM in [10]; more than 57.5 µM in test [11]; more than 49.1 µM in test [12]. Besides, the TGI in test [18] was more than 64.6 µM; in test [13], 29.7 µM; in [14] it was more than 55 µM; in test [15], 18.7 µM; in test [16], 55 µM.

With `CC(=O)c1cccc(NC(=O)/C(=N\NC(C)(C)C)c2c(O)c3ccccc3oc2=O)c1`, the TGI in test [1], in test [2], in [3], in [4], in test [5] and in [6] was more than 100 µM in each case. Moreover, the TGI in [7], in [8], in test [9], in test [10], in [11] and in [12] was more than 100 µM in each case. Further, the TGI in test [13], in test [14], in test [15] and in [16] was more than 100 µM in each case.

`COc1ccc(N2C(=O)C3c4[nH]c5ccc(OC)cc5c4C4CCC(C(C)(C)C)CC4C3C2=O)cc1` (configuration not stated): the TGI was 55.1 µM in test [1]; more than 100 µM in [2]; more than 100 µM in test [3]; more than 100 µM in test [4]; more than 100 µM in test [5]; more than 100 µM in test [6]. Further, the TGI is more than 100 µM in test [7]; more than 100 µM in [8]; more than 100 µM in test [9]; more than 100 µM in test [10]; 80 µM in [11]; 89.3 µM in [12]. In addition, the TGI was more than 100 µM in test [18]; more than 100 µM in [13]; 52.5 µM in [14]; more than 100 µM in test [15]; 35.6 µM in test [16].

`COc1cccc2c1CCc1ccccc1CC2=O`: the TGI in [1], in test [2], in test [3], in test [4], in test [5] and in test [6] was more than 100 µM throughout. The TGI in test [7], in test [8], in [9], in test [10], in [11] and in [12] was more than 100 µM throughout. Moreover, the TGI in test [18], in [13], in test [15] and in [16] was more than 100 µM in each case.

Turning to `COc1c(Cl)c2c(c(OC)c1OC)-c1ccc(OC)c(=O)c(Cl)c1C(NC(C)=O)CC2` (configuration not stated), the TGI in test [1] is 0.444 µM; in [2], more than 100 µM; in test [3], 0.453 µM; in test [4] it was 0.647 µM; in [6] it was more than 100 µM; in test [7], more than 100 µM. In addition, the TGI in test [8] was more than 100 µM; in test [9], more than 100 µM; in [12] it was 0.468 µM; in test [18], more than 100 µM; in [13] it was more than 100 µM; in [14], more than 27.2 µM. The TGI is more than 100 µM in test [15] and 1.1 µM in test [16].

For `CNC(=O)CN(CC(=O)NC)C(=O)NC`, the TGI in test [1], in [2], in test [3], in test [4], in test [5] and in [6] was more than 100 µM each time. In addition, the TGI in [7], in test [8], in test [9], in test [10], in test [11] and in [12] was more than 100 µM in each case. For the same compound, the TGI in test [18], in [13], in test [14], in [15] and in [16] was more than 100 µM each time.
